In the experiment the target is T1, human mGlu2 receptor (Homo sapiens, UniProt Q14416).
T1 construct: expressed in transfected cells; host or cells: CHO cells
The experiment in a line: [35S]GTPγS binding assay, mGluR2 PAM. The format is biochemical. The following applies: for GTPγS-hmGluR2 PAM Emax / Emax: EC20 glutamate; for EC50 / GTPγS-hmGluR2 PAM pEC50: in presence of EC20 glutamate; for EC50: read-out: GTPγS-hmGluR2 PAM pEC50 (converted). The method, then:
The [^35S]GTPγS binding assay is a functional membrane-based assay used to study G-protein coupled receptor (GPCR) function whereby incorporation of a non-hydrolysable form of GTP, [^35S]GTPγS (guanosine 5′-triphosphate, labelled with […] ^35S), is measured.
Cells were then collected by scraping in PBS and cell suspension was centrifuged (10 min at 4000 RPM in benchtop centrifuge). Supernatant was discarded and pellet gently resuspended in 50 mM Tris-HCl, pH 7.4 by mixing with a vortex and pipetting up and down. The suspension was centrifuged at 16,000 RPM (Sorvall RC-5C plus rotor SS-34) for 10 minutes and the supernatant discarded. The pellet was homogenized in 5 mM Tris-HCl, pH 7.4 using an ultra-turrax homogenizer and centrifuged again (18,000 RPM, 20 min, 4° C.). The final pellet was resuspended in 50 mM Tris-HCl, pH 7.4 and stored at-80° C. in appropriate aliquots before use. Protein concentration was determined by the Bradford method (Bio-Rad, USA) with bovine serum albumin as standard.
Measurement of mGluR2 positive allosteric modulatory activity of test compounds was performed as follows. Test compounds and glutamate were diluted in assay buffer containing 10 mM HEPES acid, 10 mM HEPES salt, pH 7.4, 100 mM NaCl, 3 mM MgCl2 and 10 μM GDP. Human mGlu2 receptor-containing membranes were thawed on ice and diluted in assay buffer supplemented with 14 μg/ml saponin. Membranes were pre-incubated with compound alone or together with a predefined (˜EC20) concentration of glutamate (PAM assay) for 30 min at 30° C. After addition of [^35S] GTPγS (f.c. 0.1 nM), assay mixtures were shaken briefly and further incubated to allow [^35S] GTPγS incorporation on activation (30 minutes, 30° C.). Final assay mixtures contained 7 μg of membrane protein in 10 mM HEPES acid, 10 mM HEPES salt, pH 7.4, 100 mM NaCl, 3 mM MgCl2, 10 µM GDP and 2 μg/ml saponin. Total reaction volume was 200 μl. Reactions were terminated by rapid filtration through Unifilter-96 GF/B plates (Perkin Elmer, Massachusetts, USA) using a 96-well filtermate universal harvester. Filters were washed 6 times with ice-cold 10 mM NaH2PO4/10 mM Na2HPO4, pH 7.4. Filters were then air-dried, and 40 μl of liquid scintillation cocktail (Microscint-O) was added to each well. Membrane-bound radioactivity was counted in a Microplate Scintillation and Luminescence Counter from Perkin Elmer.
The concentration-response curves of representative compounds of the present invention-obtained in the presence of EC20 of mGluR2 agonist glutamate to determine positive allosteric modulation (PAM)—were generated using the Lexis software interface (developed at J&J). Data were calculated as % of the control glutamate response, defined as the maximal response that is generated upon addition of glutamate alone. Sigmoid concentration-response curves plotting these percentages versus the log concentration of the test compound were analyzed using non-linear regression analysis. The concentration producing half-maximal effect is then calculated as EC50. The pEC50 values below were calculated as the −log EC50, when the EC50 is expressed in M. Emax is defined as relative maximal effect (i.e. maximal % effect relative to the control glutamate response).
In general terms: Binding of GTPγS marks nucleotide exchange on a G protein.

[1] abbreviates: maximal % effect relative to control glutamate response, read-out: GTPγS-hmGluR2 PAM Emax.

Experimental findings from US20250288584A1, “COMBINATIONS COMPRISING POSITIVE ALLOSTERIC MODULATORS OR ORTHOSTERIC AGONISTS OF METABOTROPIC GLUTAMATERGIC RECEPTOR SUBTYPE 2 AND THEIR USE” (JANSSEN PHARMACEUTICA NV, priority 2014, published 2025) are described below.

Where two headings read alike, the source gives them in different places.

T1 sequence (Q14416 19-872): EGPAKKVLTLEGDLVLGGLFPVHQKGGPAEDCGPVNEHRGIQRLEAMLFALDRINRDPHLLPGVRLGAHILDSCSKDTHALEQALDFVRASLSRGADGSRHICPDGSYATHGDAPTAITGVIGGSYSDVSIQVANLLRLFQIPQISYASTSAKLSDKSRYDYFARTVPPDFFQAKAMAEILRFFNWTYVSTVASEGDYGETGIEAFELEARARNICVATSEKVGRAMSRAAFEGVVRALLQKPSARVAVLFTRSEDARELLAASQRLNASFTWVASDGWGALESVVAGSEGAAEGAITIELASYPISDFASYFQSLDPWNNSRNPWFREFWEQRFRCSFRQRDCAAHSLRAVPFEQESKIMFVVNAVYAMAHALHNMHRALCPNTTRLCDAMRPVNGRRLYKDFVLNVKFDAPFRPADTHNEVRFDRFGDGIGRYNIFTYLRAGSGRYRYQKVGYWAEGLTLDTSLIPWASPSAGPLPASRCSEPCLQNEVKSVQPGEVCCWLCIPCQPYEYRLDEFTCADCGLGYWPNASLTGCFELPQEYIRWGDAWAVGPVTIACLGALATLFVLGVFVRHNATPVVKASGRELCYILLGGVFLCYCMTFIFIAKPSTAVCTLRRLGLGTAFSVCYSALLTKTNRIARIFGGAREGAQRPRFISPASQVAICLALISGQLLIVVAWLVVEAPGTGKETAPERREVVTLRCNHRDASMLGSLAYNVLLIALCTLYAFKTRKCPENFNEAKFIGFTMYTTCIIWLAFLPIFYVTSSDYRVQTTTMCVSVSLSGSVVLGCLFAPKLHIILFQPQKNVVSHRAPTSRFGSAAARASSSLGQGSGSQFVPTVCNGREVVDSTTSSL

As to `CC(Oc1ccc(F)cc1)c1ccn2c(CC3CC3)nnc2c1C(F)(F)F` (single isomer, unassigned) [Co. No. 2-b, 3-(Cyclopropylmethyl)-7-[(1*R)-1-(4-fluorophenoxy)ethyl]-8-(trifluoromethyl)[1,2,4]triazolo[4,3-a]pyridine], the “GTPγS-hmGluR2 PAM Emax” value (maximal % effect relative to control glutamate response, listed as 2-b) was found to be 228%. For `CC(Oc1ccc(F)cc1)c1ccn2c(CC3CC3)nnc2c1C(F)(F)F` (single isomer, unassigned) [Co. No. 3-b, 3-(Cyclopropylmethyl)-7-[(1*S)-1-(4-fluorophenoxy)ethyl]-8-(trifluoromethyl)[1,2,4]triazolo[4,3-a]pyridine], under “maximal % effect relative to control glutamate response, listed as 3-b”, the “GTPγS-hmGluR2 PAM Emax” value is listed as 187%. For orientation: Emax means the maximal effect, on the per cent scale that the assay sets. For the compound `CC(Oc1ccc(F)cc1F)c1ccn2c(CC3CCC3)nnc2c1C(F)(F)F` (single isomer, unassigned) [Co. No. 18-b, 3-(Cyclobutylmethyl)-7-[(1*S)-1-(2,4-difluorophenoxy)ethyl]-8-(trifluoromethyl)[1,2,4]triazolo[4,3-a]pyridine], the EC50 is 575 nM. Further, the maximum response (Emax) under setting [1] came out at 213%. As to `CCOCc1nnc2c(C(F)(F)F)c(C(C)Oc3ccc(F)cc3F)ccn12` (single isomer, unassigned) [Co. No. 20-b, 7-[(1*R)-1-(2,4-Difluorophenoxy)ethyl]-3-(ethoxymethyl)-8-(trifluoromethyl)[1,2,4]triazolo[4,3-a]pyridine], the “GTPγS-hmGluR2 PAM Emax” value (maximal % effect relative to control glutamate response, listed as 20-b) amounted to 332%. For the compound `CCOCc1nnc2c(C(F)(F)F)c(C(C)Oc3ccc(F)cc3F)ccn12` (single isomer, unassigned) [Co. No. 21-b, 7-[(1*S)-1-(2,4-Difluorophenoxy)ethyl]-3-(ethoxymethyl)-8-(trifluoromethyl)[1,2,4]triazolo[4,3-a]pyridine], the “GTPγS-hmGluR2 PAM Emax” value (maximal % effect relative to control glutamate response, listed as 21-b) is recorded as 102%.

For the compound `CCOCc1nnc2c(C(F)(F)F)c(C(C)Oc3c(F)cc(F)cc3F)ccn12` (single isomer, unassigned) [Co. No. 22-b, 3-(Ethoxymethyl)-8-(trifluoromethyl)-7-[(1*R)-1-(2,4,6-trifluorophenoxy)ethyl][1,2,4]triazolo[4,3-a]pyridine], the “GTPγS-hmGluR2 PAM Emax” value (maximal % effect relative to control glutamate response, listed as 22-b) is recorded as 325%.

For `CCOCc1nnc2c(C(F)(F)F)c(C(C)Oc3c(F)cc(F)cc3F)ccn12` (single isomer, unassigned) [Co. No. 23-b, 3-(Ethoxymethyl)-8-(trifluoromethyl)-7-[(1*S)-1-(2,4,6-trifluorophenoxy)ethyl][1,2,4]triazolo[4,3-a]pyridine], the “GTPγS-hmGluR2 PAM Emax” value (maximal % effect relative to control glutamate response, listed as 23-b) is 167%. In the case of `CCCc1nnc2c(C(F)(F)F)c(C(C)Oc3ccc(F)cc3F)ccn12` (single isomer, unassigned) [Co. No. 31-b], the EC50 was 89.1 nM. For the same compound, where the note is “maximal % effect relative to control glutamate response, listed as 31-b”, the “GTPγS-hmGluR2 PAM Emax” value was 251%. As for `CCCc1nnc2c(C(F)(F)F)c(C(C)Oc3ccc(F)cc3F)ccn12` (single isomer, unassigned) [Co. No. 32-b], the EC50 was 1950 nM. Also, the “GTPγS-hmGluR2 PAM Emax” value (maximal % effect relative to control glutamate response, listed as 32-b) is recorded as 116%. `O=c1c(Cl)c(N2CCC(c3ccccc3)CC2)ccn1CC1CC1` [Co. No. 1-a]: the EC50 was 166 nM. The maximal response (Emax) under setting [1] was 314%. With `CC(Oc1ccc(F)cc1)c1ccn2c(CC3CC3)nnc2c1C(F)(F)F` (stereo not shown) [Co. No. 1-b, 3-(Cyclopropylmethyl)-7-[1-(4-fluorophenoxy)ethyl]-8-(trifluoromethyl)[1,2,4]triazolo-[4,3-a]pyridine], the maximal response (Emax) under setting [1] came out at 296%. Regarding `O=c1c(Br)c(N2CCC(c3ccccc3)CC2)ccn1CC1CC1` [Co. No. 3-a], under setting [1], the Emax was found to be 231%. On to `CC1(c2ccc(F)cc2)CCN(Cc2ccn3c(CC4CC4)nnc3c2C(F)(F)F)CC1` [Co. No. 3], for which the Emax (read-out: GTPγS-hmGluR2 PAM Emax, maximal % effect relative to control glutamate response) came to 212%.

Turning to `O=c1c(C(F)(F)F)c(N2CCC(c3ccccc3)CC2)ccn1CC1CC1` [Co. No. 4-a], the “GTPγS-hmGluR2 PAM pEC50” value was 6.6. Besides, under setting [1], the Emax turned out to be 269%. For the compound `CC(Oc1ccc(F)cc1F)c1ccn2c(CC3CC3)nnc2c1C(F)(F)F` (stereo not shown) [Co. No. 4-b, 3-(Cyclopropylmethyl)-7-[1-(2,4-difluorophenoxy)ethyl]-8-(trifluoromethyl)[1,2,4]triazolo-[4,3-a]pyridine], under setting [1], the Emax turned out to be 329%.

Turning to `C[C@@H](Oc1ccc(F)cc1F)c1ccn2c(CC3CC3)nnc2c1C(F)(F)F` [Co. No. 5-b, 3-(Cyclopropylmethyl)-7-[(1R)-1-(2,4-difluorophenoxy)ethyl]-8-(trifluoromethyl)[1,2,4]triazolo[4,3-a]pyridine], under setting [1], the maximum response (Emax) was 141%. In the case of `Fc1ccc(N2CCN(Cc3ccn4c(CC5CC5)nnc4c3Cl)CC2)c(F)c1` [Co. No. 5], the EC50 was 550 nM. Besides, the Emax under setting [1] was 231%. Turning to `N#CC1(c2ccccc2)CCN(c2ccn(CC3CC3)c(=O)c2Cl)CC1` [Co. No. 6-a], the maximal response (Emax) under setting [1] is 255%.

Turning to `CCCCn1ccc(N2CCC(F)(c3ccccc3)CC2)c(Cl)c1=O` [Co. No. 7-a], the EC50 is 229 nM. Also, the Emax under setting [1] was determined as 291%.

Turning to `C[C@H](Oc1cc(F)cc(F)c1)c1ccn2c(CC3CC3)nnc2c1C(F)(F)F` [Co. No. 7-b, 3-(Cyclopropylmethyl)-7-[(1S)-1-(3,5-difluorophenoxy)ethyl]-8-(trifluoromethyl)[1,2,4]triazolo[4,3-a]pyridine], the maximal effect (Emax) under setting [1] came out at 292%. As for `CC1(C)OC2(CCN(c3ccn4c(CC5CC5)nnc4c3C(F)(F)F)CC2)c2ccc(F)cc21` [Co. No. 7], under setting [1], the maximum response (Emax) was 263%.

As to `O=c1c(C2CC2)c(N2CCC(c3ccccc3)CC2)ccn1CC1CC1` [Co. No. 8-a], under setting [1], the Emax turned out to be 157%. Same read-out and setting: in the case of `C[C@H](Oc1ccc(F)c(F)c1)c1ccn2c(CC3CC3)nnc2c1C(F)(F)F` [Co. No. 8-b, 3-(Cyclopropylmethyl)-7-[(1S)-1-(3,4-difluorophenoxy)ethyl]-8-(trifluoromethyl)[1,2,4]triazolo[4,3-a]pyridine] it was 244%. Turning to `FC(F)(F)c1c(N2CCN(c3ncccn3)CC2)ccn2c(CC3CC3)nnc12` [Co. No. 8], the EC50 was 186 nM. Under setting [1], the Emax came out at 360%. In the same order, the values of `CC(C)(O)c1ccc(C2CCN(c3ccn(CC4CC4)c(=O)c3C3CC3)CC2)cc1` [Co. No. 9-a] are 257 nM and 222%. On to `C[C@H](Oc1cccc(F)c1F)c1ccn2c(CC3CC3)nnc2c1C(F)(F)F` [Co. No. 9-b, 3-(Cyclopropylmethyl)-7-[(1S)-1-(2,3-difluorophenoxy)ethyl]-8-(trifluoromethyl)[1,2,4]triazolo[4,3-a]pyridine], for which, under setting [1], the maximum response (Emax) worked out at 260%.

`COc1cnc(N2CCN(c3ccn4c(CC5CC5)nnc4c3C(F)(F)F)CC2)nc1` [Co. No. 9]: the EC50 is 126 nM. Further, under setting [1], the Emax was 462%. As for `O=c1c(Cl)c(N2CCC(c3ccccc3)CC2)ccn1CCC1CC1` [Co. No. 10-a], the “GTPγS-hmGluR2 PAM pEC50” value turned out to be 6.88. Besides, under setting [1], the maximal effect (Emax) came to 290%. In the case of `C[C@H](Oc1cc(F)ccc1F)c1ccn2c(CC3CC3)nnc2c1C(F)(F)F` [Co. No. 10-b, 3-(Cyclopropylmethyl)-7-[(1S)-1-(2,5-difluorophenoxy)ethyl]-8-(trifluoromethyl)[1,2,4]triazolo[4,3-a]pyridine], under setting [1], the Emax came to 218%. As to `Fc1ccc(C2CCN(c3ccn4c(CC5CC5)nnc4c3Cl)CC2)c(F)c1` [Co. No. 10], the Emax under setting [1] turned out to be 357%. Take `CCCCCn1ccc(N2CCC(c3ccccc3)CC2)c(Cl)c1=O` [Co. No. 11-a]: the “GTPγS-hmGluR2 PAM pEC50” value was 7.11. For the same compound, the maximal effect (Emax) under setting [1] came out at 249%.
